In paper PMC12163085, “Targeting transcription factors through an IMiD independent zinc finger domain” (EMBO Molecular Medicine, 2025):

Experiments:
[1] = tested on: SNU387; assay: cells; parameters: species or system SNU398 and SNU387 isogenic lines; CellTiter-Glo luminescence viability dose response in 384-well plates, nonlinear regression; conditions: Homo sapiens, SNU-387; 72 h cell viability; read-out: EC50 / SNU387Lo
Protocol: (§1) Empty vector, SALL4A, and SALL4B expressing isogenic cell lines were generated by transducing the SALL4 negative hepatocellular carcinoma SNU-387 cells with empty vector, SALL4A, or SALL4B FUW-Luc-mCh-puro lentiviral constructs. Cells were plated in 50 μl of RPMI culture media in 384-well white flat-bottom plates (Corning) and incubated at 37 °C in a humidified atmosphere of 5% CO2 overnight. Cell numbers per well were 1500 for SNU-398, and 750 for SNU-387 and SNU-387 isogenic lines. After overnight incubation, varying concentrations of compounds 1–80 were added to cells with multichannel electronic pipettes (Rainin). Cells were then incubated for 72 h at 37 °C in a humidified atmosphere of 5% CO2 before 10 μl of CellTiter-Glo reagent was added to the wells with the MultiFlo Microplate Dispenser (BioTek). Cells were incubated at room temperature for a minimum of 10 min, after which luminescence readings were recorded by an Infinite M1000 Microplate Reader (Tecan). Each data point was performed in n = 3 independent cell cultures. IC50 of compounds were determined using nonlinear regression fitting from Prism (GraphPad). Cell-based screening was next employed to evaluate the growth inhibitory activity of the test compounds against SALL4 expressing malignant cells. SNU398, a liver cancer cell line with high endogenous levels of SALL4, and SNU387, a liver cancer cell line with undetectable levels of SALL4, were used for comparison. Cells were incubated with the test compound at 1 μM for 72 h, after which cell viability was assessed. […] Next, we carried out dose escalation studies on all SH compounds to deduce their EC50 values on SNU387 and SNU398. In order to interrogate the effects of compounds targeting SALL4, we created isogenic cells by overexpressing SALL4A (SNU387-TgSALL4A) or SALL4B (SNU387-TgSALL4B) in SNU387 cells (Tan et al, [2019]) (Fig. 2B, and Dataset EV4). The EC50 of SH2, SH6, and SH7 in SALL4 high SNU398 cells were 0.4 μM, 0.5 μM, and 0.3 μM, respectively. In contrast, the EC50 values of the same compounds were more than 10 μM on SALL4 low SNU387 cells.

[2] = tested on: SNU398; assay: cells; parameters: species or system SNU387, SNU398 and SNU387 isogenic lines; CellTiter-Glo luminescence viability dose response in 384-well plates, nonlinear regression; conditions: Homo sapiens, SNU-398; 72 h cell viability; read-out: EC50 / SNU398Hi
Protocol: as §1

| Compound | EC50 [1] [µM] | EC50 [2] [µM] |
| --- | --- | --- |
| COc1ccc(Nc2ncccc2/C=C/C(=O)NO)cc1 [SH16] | > 30 | > 30 |
| Nc1ccc(F)cc1NC(=O)/C=C/c1cccnc1Nc1ccc(F)cc1 [SH21] | > 30 | ~25 |
| Cc1ccc(N)c(NC(=O)/C=C/c2cccnc2Nc2ccc(C(F)(F)F)cc2)c1 [SH27] | > 30 | ~12 |
| Nc1ccc(F)cc1NC(=O)/C=C/c1cccnc1Nc1ccc(C(F)(F)F)cc1 [SH29] | > 30 | ~12 |
| Nc1ccc(Cl)cc1NC(=O)/C=C/c1cccnc1Nc1ccc(C(F)(F)F)cc1 [SH30] | ~30 | ~12 |
| Nc1cc(Cl)c(Cl)cc1NC(=O)/C=C/c1cccnc1Nc1ccc(C(F)(F)F)cc1 [SH31] | ~14 | ~10 |
| O=C(/C=C/c1cccnc1Nc1ccc(C(F)(F)F)cc1)NO [SH32] | > 30 | ~8 |
| O=C(/C=C/c1cccnc1Nc1ccc(Cl)cc1)NO [SH40] | > 30 | ~15 |
| COc1ccc(Nc2ncccc2C(=O)Nc2ccccc2N)cc1 [SH49] | > 30 | > 30 |
| COc1ccc(Nc2ncccc2C(=O)Nc2cc(OC)ccc2N)cc1 [SH50] | > 30 | > 30 |
| COc1ccc(Nc2ncccc2C(=O)Nc2cc(C)ccc2N)cc1 [SH51] | > 30 | > 30 |
| COc1ccc(Nc2ncccc2C(=O)Nc2cc(C)c(C)cc2N)cc1 [SH52] | > 30 | > 30 |
| COc1ccc(Nc2ncccc2C(=O)Nc2cc(F)ccc2N)cc1 [SH53] | > 30 | > 30 |
| COc1ccc(Nc2ncccc2C(=O)Nc2cc(Cl)ccc2N)cc1 [SH54] | > 30 | > 30 |
| COc1ccc(Nc2ncccc2C(=O)Nc2cc(Cl)c(Cl)cc2N)cc1 [SH55] | > 30 | ~25 |
| COc1ccc(Nc2ncccc2C(=O)NO)cc1 [SH56] | > 30 | > 30 |
| Nc1ccccc1NC(=O)c1cccnc1Nc1ccc(F)cc1 [SH57] | > 30 | > 30 |

| Compound | EC50 [1] [µM] | EC50 [2] [µM] |
| --- | --- | --- |
| COc1ccc(N)c(NC(=O)c2cccnc2Nc2ccc(F)cc2)c1 [SH58] | > 30 | > 30 |
| Cc1ccc(N)c(NC(=O)c2cccnc2Nc2ccc(F)cc2)c1 [SH59] | > 30 | > 30 |
| Cc1cc(N)c(NC(=O)c2cccnc2Nc2ccc(F)cc2)cc1C [SH60] | > 30 | > 30 |
| Nc1ccc(Cl)cc1NC(=O)c1cccnc1Nc1ccc(F)cc1 [SH62] | > 30 | ~25 |
| Nc1cc(Cl)c(Cl)cc1NC(=O)c1cccnc1Nc1ccc(F)cc1 [SH63] | > 30 | ~20 |
| O=C(NO)c1cccnc1Nc1ccc(F)cc1 [SH64] | > 30 | > 30 |
| Nc1ccccc1NC(=O)c1cccnc1Nc1ccc(C(F)(F)F)cc1 [SH65] | > 30 | ~25 |
| COc1ccc(N)c(NC(=O)c2cccnc2Nc2ccc(C(F)(F)F)cc2)c1 [SH66] | > 30 | ~25 |
| Cc1ccc(N)c(NC(=O)c2cccnc2Nc2ccc(C(F)(F)F)cc2)c1 [SH67] | > 30 | > 30 |
| Cc1cc(N)c(NC(=O)c2cccnc2Nc2ccc(C(F)(F)F)cc2)cc1C [SH68] | > 30 | > 30 |
| Nc1ccc(F)cc1NC(=O)c1cccnc1Nc1ccc(C(F)(F)F)cc1 [SH69] | > 30 | ~16 |
| Nc1ccc(Cl)cc1NC(=O)c1cccnc1Nc1ccc(C(F)(F)F)cc1 [SH70] | > 30 | ~25 |
| Nc1cc(Cl)c(Cl)cc1NC(=O)c1cccnc1Nc1ccc(C(F)(F)F)cc1 [SH71] | ~25 | ~16 |
| O=C(NO)c1cccnc1Nc1ccc(C(F)(F)F)cc1 [SH72] | > 30 | ~25 |
| Nc1ccccc1NC(=O)c1cccnc1Nc1ccc(Cl)cc1 [SH73] | > 30 | ~30 |
| COc1ccc(N)c(NC(=O)c2cccnc2Nc2ccc(Cl)cc2)c1 [SH74] | > 30 | ~20 |
| Cc1ccc(N)c(NC(=O)c2cccnc2Nc2ccc(Cl)cc2)c1 [SH75] | > 30 | > 30 |

Next, values leading:

| EC50 [1] [µM] | EC50 [2] [µM] | Compound |
| --- | --- | --- |
| ~30 | ~3 | COc1cc(Nc2ncccc2/C=C/C(=O)Nc2ccccc2N)cc(OC)c1OC [SH1] |
| > 30 | ~1.5 | COc1cc(Nc2ncccc2/C=C/C(=O)Nc2cc(C)ccc2N)cc(OC)c1OC [SH3] |
| > 30 | ~2 | COc1cc(Nc2ncccc2/C=C/C(=O)Nc2cc(C)c(C)cc2N)cc(OC)c1OC [SH4] |
| > 30 | ~2.5 | COc1cc(Nc2ncccc2/C=C/C(=O)Nc2cc(F)ccc2N)cc(OC)c1OC [SH5] |
| > 30 | > 30 | COc1cc(Nc2ncccc2/C=C/C(=O)NO)cc(OC)c1OC [SH8] |
| > 30 | ~25 | COc1ccc(Nc2ncccc2/C=C/C(=O)Nc2ccccc2N)cc1 [SH9] |
| > 30 | ~2.5 | COc1ccc(Nc2ncccc2/C=C/C(=O)Nc2cc(OC)ccc2N)cc1 [SH10] |
| ~10 | ~3 | COc1ccc(Nc2ncccc2/C=C/C(=O)Nc2cc(C)ccc2N)cc1 [SH11] |
| > 30 | ~25 | COc1ccc(Nc2ncccc2/C=C/C(=O)Nc2cc(C)c(C)cc2N)cc1 [SH12] |
| ~25 | ~7 | COc1ccc(Nc2ncccc2/C=C/C(=O)Nc2cc(Cl)ccc2N)cc1 [SH14] |
| > 30 | ~20 | COc1ccc(Nc2ncccc2/C=C/C(=O)Nc2cc(Cl)c(Cl)cc2N)cc1 [SH15] |
| > 30 | ~30 | Nc1ccccc1NC(=O)/C=C/c1cccnc1Nc1ccc(F)cc1 [SH17] |
| > 30 | ~2 | COc1ccc(N)c(NC(=O)/C=C/c2cccnc2Nc2ccc(F)cc2)c1 [SH18] |
| > 30 | ~12 | Cc1cc(N)c(NC(=O)/C=C/c2cccnc2Nc2ccc(F)cc2)cc1C [SH20] |
| ~30 | ~15 | Nc1ccc(Cl)cc1NC(=O)/C=C/c1cccnc1Nc1ccc(F)cc1 [SH22] |
| ~25 | ~12 | Nc1cc(Cl)c(Cl)cc1NC(=O)/C=C/c1cccnc1Nc1ccc(F)cc1 [SH23] |
| > 30 | 30 | Nc1ccccc1NC(=O)/C=C/c1cccnc1Nc1ccc(C(F)(F)F)cc1 [SH25] |

| EC50 [1] [µM] | EC50 [2] [µM] | Compound |
| --- | --- | --- |
| ~12 | ~6 | COc1ccc(N)c(NC(=O)/C=C/c2cccnc2Nc2ccc(C(F)(F)F)cc2)c1 [SH26] |
| ~25 | ~12 | Cc1cc(N)c(NC(=O)/C=C/c2cccnc2Nc2ccc(C(F)(F)F)cc2)cc1C [SH28] |
| > 30 | ~20 | Nc1ccccc1NC(=O)/C=C/c1cccnc1Nc1ccc(Cl)cc1 [SH33] |
| ~5 | ~3 | COc1ccc(N)c(NC(=O)/C=C/c2cccnc2Nc2ccc(Cl)cc2)c1 [SH34] |
| ~20 | ~9 | Cc1ccc(N)c(NC(=O)/C=C/c2cccnc2Nc2ccc(Cl)cc2)c1 [SH35] |
| > 30 | ~17 | Cc1cc(N)c(NC(=O)/C=C/c2cccnc2Nc2ccc(Cl)cc2)cc1C [SH36] |
| > 30 | ~17 | Nc1ccc(F)cc1NC(=O)/C=C/c1cccnc1Nc1ccc(Cl)cc1 [SH37] |
| > 30 | ~15 | Nc1ccc(Cl)cc1NC(=O)/C=C/c1cccnc1Nc1ccc(Cl)cc1 [SH38] |
| ~25 | ~16 | Nc1cc(Cl)c(Cl)cc1NC(=O)/C=C/c1cccnc1Nc1ccc(Cl)cc1 [SH39] |
| > 30 | > 30 | COc1cc(Nc2ncccc2C(=O)Nc2ccccc2N)cc(OC)c1OC [SH41] |
| ~30 | ~12 | COc1cc(Nc2ncccc2C(=O)Nc2cc(C)ccc2N)cc(OC)c1OC [SH43] |
| > 30 | > 30 | COc1cc(Nc2ncccc2C(=O)Nc2cc(C)c(C)cc2N)cc(OC)c1OC [SH44] |
| > 30 | > 30 | COc1cc(Nc2ncccc2C(=O)Nc2cc(F)ccc2N)cc(OC)c1OC [SH45] |
| > 30 | > 30 | COc1cc(Nc2ncccc2C(=O)Nc2cc(Cl)ccc2N)cc(OC)c1OC [SH46] |
| > 30 | ~18 | COc1cc(Nc2ncccc2C(=O)Nc2cc(Cl)c(Cl)cc2N)cc(OC)c1OC [SH47] |
| > 30 | > 30 | COc1cc(Nc2ncccc2C(=O)NO)cc(OC)c1OC [SH48] |
